Assays:
[1] = biological target: T1, BRD2(1) (h) bromodomain (Homo sapiens, UniProt P25440); assay: Epigenetic binding assay, Bromodomain; conditions: for % Inhibition of Control Specific Binding / inhibition at 10 µM: 10 μM; for inhibition at 10 µM: read-out: % Inhibition of Control Specific Binding
T1 construct: Bromodomain

[2] = biological target: T2, BRD2(2) (h) bromodomain (Homo sapiens, UniProt P25440); assay: Epigenetic binding assay, Bromodomain; conditions: read-out: % Inhibition of Control Specific Binding
T2 construct: Bromodomain
T2 sequence (P25440 344-453 limits assumed): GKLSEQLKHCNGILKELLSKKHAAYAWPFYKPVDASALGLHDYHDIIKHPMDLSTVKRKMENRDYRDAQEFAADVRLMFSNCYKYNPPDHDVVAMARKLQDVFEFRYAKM

[3] = biological target: T3, CBX2 (h) chromodomain (Homo sapiens, UniProt Q14781); assay: Epigenetic binding assay, Chromodomain; conditions: read-out: % Inhibition of Control Specific Binding
T3 construct: Recognition and specificity determinants of the human cbx chromodomains; Eurofins CEREP (France), contract laboratory
T3 sequence (Q14781 12-70 limits assumed): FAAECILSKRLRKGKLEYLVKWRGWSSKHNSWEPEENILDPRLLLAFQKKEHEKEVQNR

[4] = biological target: T4, CBX6 (h) chromodomain (Homo sapiens, UniProt O95503); assay: Epigenetic binding assay, Chromodomain; conditions: read-out: % Inhibition of Control Specific Binding
T4 construct: Recognition and specificity determinants of the human cbx chromodomains; Eurofins CEREP (France), contract laboratory
T4 sequence (O95503 11-69 limits assumed): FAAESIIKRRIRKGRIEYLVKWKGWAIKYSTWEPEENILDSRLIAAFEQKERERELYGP

[5] = biological target: T5, CBX7 (h) chromodomain (Homo sapiens, UniProt O95931); assay: Epigenetic binding assay, Chromodomain; conditions: read-out: % Inhibition of Control Specific Binding
T5 construct: Recognition and specificity determinants of the human cbx chromodomains; Eurofins CEREP (France), contract laboratory
T5 sequence (O95931 11-69 limits assumed): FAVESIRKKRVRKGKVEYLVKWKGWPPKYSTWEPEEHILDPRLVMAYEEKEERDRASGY

[6] = biological target: T6, UHRF1 (108-286) (h) (Homo sapiens, UniProt Q96T88); assay: Epigenetic binding assay, PHD domain; conditions: for inhibition at 10 µM: read-out: % Inhibition of Control Specific Binding
T6 construct: Eurofins CEREP (France), contract laboratory
T6 sequence (Q96T88 108-286): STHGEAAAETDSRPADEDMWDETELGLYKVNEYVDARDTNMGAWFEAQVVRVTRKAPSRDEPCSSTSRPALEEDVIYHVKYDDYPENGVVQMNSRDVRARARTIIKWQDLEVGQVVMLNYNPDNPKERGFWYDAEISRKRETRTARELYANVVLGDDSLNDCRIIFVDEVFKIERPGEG

[7] = system: H3K36 me2; assay: Cell-based detection methyl modifications; conditions: read-out: % Inhibition of Control Values
[8] = biological target: HDAC3 (h) (Homo sapiens, UniProt O15379); assay: Epigenetic enzyme assay, Histone deacetylase (HDACs); format: biochemical; conditions: read-out: % Inhibition of Control Values
HDAC3 (h), sequence (O15379 whole entry): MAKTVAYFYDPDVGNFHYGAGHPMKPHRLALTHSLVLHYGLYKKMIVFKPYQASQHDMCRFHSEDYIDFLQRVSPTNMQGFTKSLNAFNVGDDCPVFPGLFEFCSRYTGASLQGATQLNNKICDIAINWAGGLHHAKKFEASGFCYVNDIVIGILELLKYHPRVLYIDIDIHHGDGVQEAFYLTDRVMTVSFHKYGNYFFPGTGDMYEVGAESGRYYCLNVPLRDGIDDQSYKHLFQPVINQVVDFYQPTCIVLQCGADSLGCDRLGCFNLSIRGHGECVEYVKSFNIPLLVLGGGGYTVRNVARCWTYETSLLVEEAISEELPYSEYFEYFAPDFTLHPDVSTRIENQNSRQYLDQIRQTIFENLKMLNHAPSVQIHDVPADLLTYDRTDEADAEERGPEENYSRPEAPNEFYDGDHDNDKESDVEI
HDAC3 (h), sequence (Q9Y618 395-489 partner limits assumed): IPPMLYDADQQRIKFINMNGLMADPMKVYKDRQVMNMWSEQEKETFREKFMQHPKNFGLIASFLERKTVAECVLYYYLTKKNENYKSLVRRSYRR

[9] = biological target: EZH2/EED/SUZ12 (h) (PRC2 complex) (Homo sapiens, UniProt Q15910); assay: Epigenetic enzyme assay, Methyltransferases (MTs); format: biochemical; conditions: read-out: % Inhibition of Control Values
[10] = system: MLL2(h) complex; assay: Epigenetic enzyme assay, Methyltransferases (MTs); format: biochemical, human; conditions: for % Inhibition of Control Values: 10 μM
[11] = biological target: PRMT6 (h) (Homo sapiens, UniProt Q96LA8); assay: Epigenetic enzyme assay, Methyltransferases (MTs); format: biochemical; conditions: read-out: % Inhibition of Control Values
PRMT6 (h), sequence (Q96LA8 whole entry): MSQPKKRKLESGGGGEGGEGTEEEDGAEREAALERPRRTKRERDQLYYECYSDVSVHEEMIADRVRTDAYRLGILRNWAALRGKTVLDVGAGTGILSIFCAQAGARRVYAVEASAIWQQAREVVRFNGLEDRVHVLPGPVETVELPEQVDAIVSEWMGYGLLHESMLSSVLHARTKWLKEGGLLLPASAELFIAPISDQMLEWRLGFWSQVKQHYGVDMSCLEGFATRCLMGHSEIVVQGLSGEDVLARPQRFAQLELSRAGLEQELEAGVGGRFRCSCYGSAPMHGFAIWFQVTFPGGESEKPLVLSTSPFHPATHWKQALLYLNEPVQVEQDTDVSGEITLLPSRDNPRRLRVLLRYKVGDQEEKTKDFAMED

[12] = biological target: SETD2(h) (Homo sapiens, UniProt Q9BYW2); assay: Epigenetic enzyme assay, Methyltransferases (MTs); format: biochemical; conditions: for inhibition at 10 µM: read-out: % Inhibition of Control Values
SETD2(h), sequence (Q9BYW2 whole entry): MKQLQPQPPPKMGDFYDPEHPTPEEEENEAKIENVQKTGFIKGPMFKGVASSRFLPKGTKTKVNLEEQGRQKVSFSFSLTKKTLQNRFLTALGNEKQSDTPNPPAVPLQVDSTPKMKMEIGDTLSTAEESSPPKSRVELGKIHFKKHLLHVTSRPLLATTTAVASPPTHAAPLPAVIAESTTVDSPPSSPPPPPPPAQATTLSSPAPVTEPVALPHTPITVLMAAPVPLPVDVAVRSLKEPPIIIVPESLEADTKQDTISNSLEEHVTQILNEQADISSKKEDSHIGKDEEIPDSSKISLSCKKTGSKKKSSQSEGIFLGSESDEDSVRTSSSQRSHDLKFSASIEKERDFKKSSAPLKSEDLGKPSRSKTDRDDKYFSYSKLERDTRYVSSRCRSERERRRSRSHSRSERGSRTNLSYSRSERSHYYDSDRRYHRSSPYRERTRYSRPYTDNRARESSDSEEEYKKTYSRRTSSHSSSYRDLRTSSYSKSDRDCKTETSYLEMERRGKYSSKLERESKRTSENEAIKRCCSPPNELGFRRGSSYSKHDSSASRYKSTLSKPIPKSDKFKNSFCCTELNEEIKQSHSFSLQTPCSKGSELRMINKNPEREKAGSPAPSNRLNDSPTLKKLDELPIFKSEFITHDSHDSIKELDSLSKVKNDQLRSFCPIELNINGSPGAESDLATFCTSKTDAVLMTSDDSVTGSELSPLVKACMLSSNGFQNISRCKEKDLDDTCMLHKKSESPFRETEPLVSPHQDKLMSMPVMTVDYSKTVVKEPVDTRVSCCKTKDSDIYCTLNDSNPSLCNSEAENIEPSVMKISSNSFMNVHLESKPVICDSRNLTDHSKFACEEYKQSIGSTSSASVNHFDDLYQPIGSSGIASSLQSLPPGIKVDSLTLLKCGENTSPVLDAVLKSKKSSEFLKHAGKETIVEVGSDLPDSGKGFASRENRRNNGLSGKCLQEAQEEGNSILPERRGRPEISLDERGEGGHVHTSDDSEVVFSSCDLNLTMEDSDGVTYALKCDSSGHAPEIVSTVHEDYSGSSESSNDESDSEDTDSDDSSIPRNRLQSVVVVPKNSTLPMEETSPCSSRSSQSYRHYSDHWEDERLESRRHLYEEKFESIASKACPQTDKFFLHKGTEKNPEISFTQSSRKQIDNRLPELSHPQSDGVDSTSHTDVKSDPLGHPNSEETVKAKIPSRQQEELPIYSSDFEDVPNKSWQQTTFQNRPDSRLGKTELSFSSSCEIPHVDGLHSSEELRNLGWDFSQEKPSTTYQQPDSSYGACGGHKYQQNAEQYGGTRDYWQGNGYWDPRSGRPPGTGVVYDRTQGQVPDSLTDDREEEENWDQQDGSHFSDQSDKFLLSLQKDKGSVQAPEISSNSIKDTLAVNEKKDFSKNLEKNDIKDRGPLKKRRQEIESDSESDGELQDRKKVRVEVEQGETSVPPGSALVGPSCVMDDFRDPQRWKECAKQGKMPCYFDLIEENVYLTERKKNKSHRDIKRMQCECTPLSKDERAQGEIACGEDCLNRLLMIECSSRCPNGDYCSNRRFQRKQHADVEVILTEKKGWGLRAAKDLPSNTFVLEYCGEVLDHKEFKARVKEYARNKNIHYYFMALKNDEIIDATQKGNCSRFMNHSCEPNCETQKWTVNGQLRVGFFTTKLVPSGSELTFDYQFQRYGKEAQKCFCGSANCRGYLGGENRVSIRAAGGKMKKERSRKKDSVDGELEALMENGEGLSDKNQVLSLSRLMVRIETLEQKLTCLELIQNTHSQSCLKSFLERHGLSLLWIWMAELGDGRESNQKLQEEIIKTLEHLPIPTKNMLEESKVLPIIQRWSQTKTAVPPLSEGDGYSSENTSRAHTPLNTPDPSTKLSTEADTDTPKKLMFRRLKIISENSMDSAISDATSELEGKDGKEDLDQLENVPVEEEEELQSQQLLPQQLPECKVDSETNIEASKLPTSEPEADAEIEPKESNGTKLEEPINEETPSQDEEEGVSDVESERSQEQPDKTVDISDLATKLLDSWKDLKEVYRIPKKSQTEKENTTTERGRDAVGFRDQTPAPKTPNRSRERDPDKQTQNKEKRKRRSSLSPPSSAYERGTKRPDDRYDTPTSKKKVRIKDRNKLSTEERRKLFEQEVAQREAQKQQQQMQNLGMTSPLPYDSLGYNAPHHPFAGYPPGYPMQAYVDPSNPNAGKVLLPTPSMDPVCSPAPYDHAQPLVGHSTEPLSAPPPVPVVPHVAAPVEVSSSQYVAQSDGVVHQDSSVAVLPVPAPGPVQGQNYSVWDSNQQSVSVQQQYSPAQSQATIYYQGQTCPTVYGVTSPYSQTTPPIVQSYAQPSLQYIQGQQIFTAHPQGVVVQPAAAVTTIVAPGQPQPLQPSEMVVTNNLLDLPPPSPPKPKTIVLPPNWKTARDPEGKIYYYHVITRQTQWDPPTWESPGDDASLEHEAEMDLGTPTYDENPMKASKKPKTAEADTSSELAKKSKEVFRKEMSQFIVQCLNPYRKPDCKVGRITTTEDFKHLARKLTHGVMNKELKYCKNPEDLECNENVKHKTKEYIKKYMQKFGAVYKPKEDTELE

[13] = biological target: MSK2(h) (substrate histone H3 full length) (Homo sapiens, UniProt O75676); assay: Epigenetic enzyme assay, Kinases; format: biochemical; conditions: read-out: % Inhibition of Control Values
[14] = biological target: T7, Phenylethanolamine N-methyltransferase (h) (Homo sapiens, UniProt P11086); assay: Epigenetic enzyme assay, Small molecule methyltransferases; format: biochemical; conditions: read-out: % Inhibition of Control Values
T7 sequence (P11086 1-282): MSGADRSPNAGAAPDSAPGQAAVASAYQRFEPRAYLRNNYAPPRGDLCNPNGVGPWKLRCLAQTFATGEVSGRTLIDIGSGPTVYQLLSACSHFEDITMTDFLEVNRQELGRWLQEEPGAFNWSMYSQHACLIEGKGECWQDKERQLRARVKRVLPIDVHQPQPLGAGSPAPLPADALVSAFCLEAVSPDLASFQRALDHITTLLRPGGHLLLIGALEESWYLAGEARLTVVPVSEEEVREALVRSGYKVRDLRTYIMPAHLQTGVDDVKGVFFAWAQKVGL

[15] = biological target: USP 10 (h) (Homo sapiens, UniProt Q14694); assay: Epigenetic enzyme assay, Ubiquitin modifying enzymes; format: biochemical; conditions: 10 μM; read-out: % Inhibition of Control Values
[16] = biological target: T8, Chemokine CX3CR1 (Homo sapiens, UniProt P49238); assay: Chemokine CX3CR1 radio ligand binding; conditions: assay year 2015
T8 construct: expressed in transfected cells; host or cells: Chem-1 cells
T8 sequence (P49238 1-355): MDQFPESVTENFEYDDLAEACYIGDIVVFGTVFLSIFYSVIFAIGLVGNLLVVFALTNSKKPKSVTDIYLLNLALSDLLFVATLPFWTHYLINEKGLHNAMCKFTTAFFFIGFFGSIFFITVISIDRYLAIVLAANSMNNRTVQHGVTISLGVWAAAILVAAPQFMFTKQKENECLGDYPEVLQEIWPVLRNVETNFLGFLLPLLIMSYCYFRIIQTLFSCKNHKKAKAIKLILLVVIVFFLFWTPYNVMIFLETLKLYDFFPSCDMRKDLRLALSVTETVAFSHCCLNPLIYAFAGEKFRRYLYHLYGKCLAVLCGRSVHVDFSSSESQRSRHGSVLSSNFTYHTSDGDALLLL
Experimental: (§1) The in vitro pharmacological studies were conducted by Eurofins PanLab (Taiwan) using the parameters shown in Table 13 with respect to appropriate literature references.

[17] = biological target: T9, Xanthine Oxidase (Bos taurus, UniProt P80457); assay: Xanthine Oxidase; format: biochemical, Bovine; conditions: assay year 2015, read-out: % Control Response
T9 construct: Bovine buttermilk; from tissue; host or cells: bovine buttermilk
T9 sequence (P80457 whole entry): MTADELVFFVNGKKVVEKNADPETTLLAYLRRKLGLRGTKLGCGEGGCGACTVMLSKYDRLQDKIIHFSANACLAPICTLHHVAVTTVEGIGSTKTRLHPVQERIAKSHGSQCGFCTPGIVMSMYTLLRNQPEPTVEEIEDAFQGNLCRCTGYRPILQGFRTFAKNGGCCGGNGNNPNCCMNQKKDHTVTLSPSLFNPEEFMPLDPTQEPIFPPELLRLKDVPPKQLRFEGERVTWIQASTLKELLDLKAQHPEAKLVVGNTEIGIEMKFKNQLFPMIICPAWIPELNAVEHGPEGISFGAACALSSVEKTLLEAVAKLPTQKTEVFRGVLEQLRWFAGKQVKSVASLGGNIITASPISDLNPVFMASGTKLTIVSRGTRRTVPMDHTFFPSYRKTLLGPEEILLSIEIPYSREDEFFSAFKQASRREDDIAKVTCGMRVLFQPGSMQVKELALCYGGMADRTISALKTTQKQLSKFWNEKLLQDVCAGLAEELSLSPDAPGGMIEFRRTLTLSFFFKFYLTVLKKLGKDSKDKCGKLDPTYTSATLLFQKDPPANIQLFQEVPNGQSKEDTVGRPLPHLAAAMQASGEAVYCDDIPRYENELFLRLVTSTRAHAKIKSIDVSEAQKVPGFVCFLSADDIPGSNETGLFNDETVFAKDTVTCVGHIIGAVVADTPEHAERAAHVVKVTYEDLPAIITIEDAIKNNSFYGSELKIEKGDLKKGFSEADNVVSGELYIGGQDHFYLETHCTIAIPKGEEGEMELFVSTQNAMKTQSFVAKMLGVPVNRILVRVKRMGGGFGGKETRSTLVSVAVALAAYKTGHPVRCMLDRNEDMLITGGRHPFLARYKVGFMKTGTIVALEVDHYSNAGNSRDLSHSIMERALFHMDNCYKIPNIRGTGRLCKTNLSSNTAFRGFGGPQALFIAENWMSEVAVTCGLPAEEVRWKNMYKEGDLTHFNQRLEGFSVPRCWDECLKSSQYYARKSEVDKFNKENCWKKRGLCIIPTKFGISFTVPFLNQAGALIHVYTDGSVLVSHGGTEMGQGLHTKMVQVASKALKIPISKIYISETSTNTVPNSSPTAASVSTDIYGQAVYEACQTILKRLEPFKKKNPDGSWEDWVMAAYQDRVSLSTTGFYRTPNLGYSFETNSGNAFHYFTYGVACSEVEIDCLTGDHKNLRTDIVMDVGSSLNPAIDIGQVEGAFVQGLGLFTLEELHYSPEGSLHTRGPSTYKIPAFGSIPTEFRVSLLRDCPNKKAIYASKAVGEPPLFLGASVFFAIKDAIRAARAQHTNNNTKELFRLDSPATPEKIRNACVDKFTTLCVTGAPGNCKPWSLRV
Experimental: as §1

[18] = system: Rat L6 skeletal muscle cells; assay: [3H]-2-Deoxy-D-glucose uptake; format: cell-based; conditions: 10 μM; assay year 2016
Experimental: as §1

[19] = Table 9, inhibition/concentration-response curve

T1 sequence (P25440 74-180 limits assumed): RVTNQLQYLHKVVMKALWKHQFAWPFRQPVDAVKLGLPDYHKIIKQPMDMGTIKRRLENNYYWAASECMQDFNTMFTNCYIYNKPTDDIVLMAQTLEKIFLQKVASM

| Compound | % Inhibition of Control Specific Binding [1] | inhibition at 10 µM [1] | inhibition at 10 µM [2] | inhibition at 10 µM [3] | inhibition at 10 µM [4] | inhibition at 10 µM [5] | inhibition at 10 µM ([6]; 10 μM) | inhibition at 10 µM [7] | inhibition at 10 µM [8] | inhibition at 10 µM [9] | % Inhibition of Control Values [10] | inhibition at 10 µM [11] | inhibition at 10 µM [12] | inhibition at 10 µM [13] | inhibition at 10 µM [14] | inhibition at 10 µM [15] | percent of control response at 10 µM [16] | remaining activity at 10 µM [17] | % Control Response, agonist (increase in 2-DG uptake relative to insulin response) [18] | other results |
| --- | --- | --- | --- | --- | --- | --- | --- | --- | --- | --- | --- | --- | --- | --- | --- | --- | --- | --- | --- | --- |
| CC(C)=CCC[C@H](CO)[C@@H]1CC[C@@H](C)c2c1cc(C)c(O)c2O [Compound 1, 7,8,18-trihydroxyserrulat-14-ene] | significant inhibitory activity | 60% | 58% | 17% | -1% | 25% | 73% | 10% | 1% | 19% | 6% | 49% | -9% | 9% | 23% | 7% | -1% | 14% | −61% | % Inhibition of Control Specific Binding ([6]; 10 μM): good inhibitory activity; inhibition of binding, 1st ([6]; 3.0E−05M): 81.5; inhibition of binding, 2nd ([6]; 3.0E−05M): 83.3; inhibition of binding, Mean ([6]; 3.0E−05M): 82.4; inhibition of binding, 1st ([6]; 3.0E−06M): −1.8; inhibition of binding, 2nd ([6]; 3.0E−06M): −0.1; inhibition of binding, Mean ([6]; 3.0E−06M): −0.9; inhibition of binding, 1st ([6]; 3.0E−07M): −12.1; inhibition of binding, 2nd ([6]; 3.0E−07M): −13.2; inhibition of binding, Mean ([6]; 3.0E−07M): −12.7; inhibition of binding, 1st ([6]; 3.0E−08M): −13.3; inhibition of binding, 2nd ([6]; 3.0E−08M): −12.6; inhibition of binding, Mean ([6]; 3.0E−08M): −12.9; inhibition of binding, 1st ([6]; 3.0E−09M): −11.9; inhibition of binding, 2nd ([6]; 3.0E−09M): −13.1; inhibition of binding, Mean ([6]; 3.0E−09M): −12.5; IC50 [6, 19]: 11 µM |
| CC(C)=CCC[C@@H]1C(O)Oc2c(C)cc(O)c3c2[C@H]1CC[C@H]3C (stereo partly shown) [Compound 2, 5,18-epoxyserrulat-14-en-8,18-diol] | significant activity | 89% | 22% | 6% | 27% | 33% | 34% | 7% | 1% | 26% | 3% | 57% | -4% | 12% | 9% | 2% | 5% | 20% | – | IC50 [1, 19]: 22 µM |
| Nc1ncnc2c1ncn2[C@@H]1O[C@H](CSCC[C@H](N)C(=O)O)[C@@H](O)[C@H]1O [SAH] | – | – | – | – | – | – | – | – | – | – | – | – | – | – | – | – | – | – | – | IC50 ([10]; read-out: Reference IC50): 24 µM; IC50 ([12]; read-out: Reference IC50): 1.2 µM |
| CC(C)=CCC[C@@H]1COc2c(C)cc(O)c3c2[C@H]1CC[C@H]3C [Compound 3, 5,18-epoxy-8-hydroxyserrulat-14-ene] | – | 19% | 18% | 3% | 58% | 43% | 29% | -8% | 3% | 4% | −15% | 34% | -11% | -1% | 5% | -7% | 7% | 27% | −52% | – |
| CC(C)=CCC[C@H](C)[C@@H]1CC[C@@H](C)c2c1cc(C)c(O)c2O [Compound 4, 7,8-dihydroxyserrulat-14-ene] | – | – | – | – | – | – | – | – | – | – | – | – | – | – | – | – | – | – | −45% | – |

Reference: patent publication US11331299B2, “Medicinal use of serrulatane diterpenes” (The University of Sydney, priority 2016, dated 2022)
